In patent US10232043B2, “Photoactivated molecules for light-induced modulation of the activity of electrically excitable cells and methods of using the same” (UNIVERSITY OF SOUTHERN CALIFORNIA, priority 2015, dated 2019):

What was measured:
[1] = system: cell lines and primary cells; test: Cell tolerance to RubpyC17 incubation (gigaseal stability, viability); type: cell-based
Method: However, in several embodiments, other organic ligands coupled to other transition metals are also used, with reduced and/or non-existent adverse side effects. […] Excessive and prolonged whole cell incubation with RubpyC17 (e.g., >10 μM for >5 min) may result in cell toxicity, since a stable gigaseal cannot be stably maintained in those cells. At this time, the mechanism behind the adverse effects on cell health upon RubpyC17 overexposure is not yet fully known. Since perforation was not achieved when a small patch of membrane was exposed to a high dose of RupbyC17, it was hypothesized that when an entire cell is overexposed to RubpyC17, there may be sufficient random interactions between excess RubpyC17 complex and endogenous surface molecules (i.e., proteins, carbohydrates, sugars), triggering signals that lead to cell health deterioration. However, when used in its appropriate dose range (e.g., <about 10 μM for cell lines and <about 2 μM for primary cells, according to one embodiment), RubpyC17 is tolerated by cells and consistently confers light sensitivity.

INS cells = test: Whole cell patch clamp, current-clamp membrane potential under light; type: cell-based, rat; conditions: for light-induced increase of membrane potential: 488 nm
Method: Membrane potential was monitored using whole cell patch clamp in current-clamp mode. Cultured cells (INS and HEK293) were plated on a glass-bottomed culture dishes 1-3 days prior to recording. Cells were incubated in standard extracellular solution with or without 10 μM RubpyC17 compound for approximately 1.5-2 minutes, then washed and incubated with standard extracellular solution without additional supplementation, or with 2-5 mM ascorbate, 100 μM sodium ferrocyanide, or 100-200 μM potassium ferricyanide, as indicated. The chamber was transferred to the microscope stage. Extracellular solution consisted of 140 mM NaCl, 2.8 mM KCl, 10 mM HEPES, 1 mM MgCl2, 2 mM CaCl2, 10 mM glucose, pH adjusted to 7.3, and osmolarity adjusted to 300-310. Conventional whole-cell patch clamp recordings were performed with an EPC-9 amplifier and Pulse software (HEKA Electronics). Pipette electrodes of 1.8-3.5 Mohm were fire polished before use. Intracellular solution consisted of: 145 mM KCl, 10 mM NaCl, 1 mM MgCl2, 1 mM EGTA, 2 mM ATP, 0.3 mM GTP and 10 mM HEPES, pH adjusted to 7.3 and osmolarity adjusted to 290-300 mOsm. To monitor changes in membrane voltage/potential, cells were patch clamped in current-clamp mode. Access resistances were in the range of 3-8 Mohm. Using Pulse, membrane potentials were recorded before, during and after illumination by the argon ion laser at 488 nm with an irradiance value of 0.458 mE s^−1 m^−2 or by a xenon lamp source through a 470/40 nm bandpass excitation filter with an irradiance value of 0.480 mE s^−1 m^−2. The duration of illumination varied and the timing is indicated by bars on the figures.
Initial attempts were tied to INS and HEK cells, both cells that are not excitable under normal conditions (INS cells were maintained in low glucose <3 mM to prevent action potentials). The cells were incubated in 10 μM of RubpyC17 compound for approximately 2 minutes then washed with standard extracellular solution, supplemented with 2 mM ascorbate. It was hypothesized that when RubpyC17 is incorporated into the cell membrane, illumination would induce accumulation of negative charges at the outer face of the cell membrane, due to transfer of an electron from ascorbate to the photoactivated RubpyC17 resulting in membrane depolarization. To monitor the plasma membrane potential, the cells were patch-clamped in whole-cell configuration in current-clamp mode and membrane voltages were recorded while illuminating the cell at 488 nm (0.46-0.48 mE s^−1 m^−2), though other wavelengths are useful, depending on the embodiment.

[2] = aqueous solution; cited from earlier work
HEK293T cells = test: Effect of PF6:Cl counter ion ratio of Rubpy-C17 on HEK293T cells; type: cell-based
Method: In some embodiments, the 20 mg of Rubpy-C17 is stored in −20° C. with desiccant in the dark. […] 253 μl of DMSO is then added into the original bottle containing Rubpy-C17 to make 100 mM stock solution. In some embodiments, the stock solution is aliquot and stored in −20° C. with desiccant in the dark.
In some examples, on the day before or on, the same day of the experiment, the following 2.5 mM external solution is prepared using the following steps. The external solution is warmed up to 37° C. For […] of the external solution, 0.176 grams of absorbic acid was added. Another 240 μL 5M NaOH was added to adjust the pH to between about 7.2-7.4. The absorbic solution can then be filtered through a 0.2 μm filter. The solution is then stored in the dark in 4° C. In some examples, the solution must be used within one week.
The 100 mM of Rubpy solution is first thawed from −20° C. 100 mM Rubpy is then diluted to 10 mM Rubpy: 2 μL 100 mM Rubpy+18 μL DMSO. In some examples, this is vortexted to mix and then centrifuged down with a small bench-top. The culture, medium is aspirated and the cells are rinsed with external solution several times. The external solution can then be aspirated. In some examples, enough of the external solution is left on the cells to prevent it from drying. 500 μL of external solution with 2.5 mM of ascorbic acid can then be added.
In some examples, 1 μL of 10 mM of Rubpy to […] of external solution with 2.5 mM ascorbic acid and mixed well. This should produce a final concentration of 10 μM of Rubpy with 0.1% DMSO. This mixed solution is then added to the above referenced cells and incubated for 10 minutes.
The solution can then be aspirated from the plate and rinsed with regular external solution several times. 2 mL of external solution is added to 2.5 mM ascorbic acid for recording. For each plate, a baseline control is taken by recording the first cell before performing any light-stimulating protocol. The light-stimulus can include 10-40 s in duration and bandpassed at 455-495 nm (blue light).
As discussed above, the mixture a 10 μM of RubpyC17 solution was placed in 10 HEK293T cells.

Q: What does the source list for CCCCCCCCCCCCCCCCCc1ccnc(-c2cc(C)ccn2)c1.F[P-](F)(F)(F)(F)F.F[P-](F)(F)(F)(F)F.[Ru+2].c1ccc(-c2ccccn2)nc1.c1ccc(-c2ccccn2)nc1 [RubpyC17, [Ru(bpy)2(bpy-C17)](PF6)2]?
A: dose range tolerated by cells ([1]; cell lines): < 10 µM; viability after incubation ([1]; chromaffin cells, ~30 min with RubpyC17): continued viability of chromaffin cells; whole cell incubation concentration that may result in cell toxicity ([1]; for >5 min, stable gigaseal not maintained): > 10 µM; dose range tolerated by cells ([1]; primary cells): < 2 µM; continuous illumination required to reach maximum light-triggered depolarization (INS cells; 0.46-0.48 mE s−1 m2, FIGS. 18B-18F): ~30 s; light-induced increase of membrane potential (INS cells; INS cells, 10 μM ~2 min, 2 mM ascorbate): 15.9 ± 4.6 mV; light-induced increase of membrane potential (INS cells; INS cells, absence of ascorbate): 9.8 ± 4.5 mV; light-triggered depolarization with non-permeating ions (INS cells; INS cells, cesium and NMDG instead of potassium and sodium): still persisted; illumination time at which cells undergo membrane potential change (INS cells; oxidants (ferricyanide) present, FIG. 18A): ≥ 10 s; reversibility of light-induced depolarization (INS cells; presence of reductants): appears to be irreversible; illumination time at which cells undergo membrane potential change (INS cells; reductants (ascorbate) present, INS and HEK293T (FIG. 18A)): ≥ 25 s; electron transfer rate ket to oxidant ferricyanide [2]: ~6.5e+09 M⁻¹ s⁻¹; fluorescence pattern (HEK293T cells; only PF6 counter ions): punctuate fluorescence; Cell Death (HEK293T cells; only counter ion is chloride): cell death is observed
